According to PubChem BioAssay (NCI):
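Where inhibition never reached the appropriate level, the endpoint shown equals the highest concentration tested. Otherwise, values were interpolated linearly from a five-concentration, 48-hour dose response in 96-well plates. TGI: total growth inhibition.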

Assays:
Experiment in all cases: NCI-60 cell line screen, 48 h
[1] = tested on: SF-268 CNS
[2] = tested on: MALME-3M melanoma
[3] = tested on: MDA-MB-231 breast
[4] = tested on: OVCAR-4 ovarian
[5] = tested on: 786-0 renal
[6] = tested on: OVCAR-3 ovarian
[7] = tested on: UO-31 renal
[8] = tested on: NCI-H23 lung
[9] = tested on: OVCAR-8 ovarian
[10] = tested on: OVCAR-5 ovarian
[11] = tested on: ACHN renal
[12] = tested on: TK-10 renal
[13] = tested on: SK-OV-3 ovarian
[14] = tested on: NCI/ADR-RES ovarian
[15] = tested on: PC-3 prostate
[16] = tested on: SK-MEL-28 melanoma
[17] = tested on: SK-MEL-2 melanoma
[18] = tested on: T-47D breast
[19] = tested on: HOP-92 NSCLC

Structure (SMILES)	TGI [1]	TGI [2]	TGI [3]	TGI [4]	TGI [5]	TGI [6]	TGI [7]	TGI [8]	TGI [9]	TGI [10]	TGI [11]	TGI [12]	TGI [13]	TGI [14]	TGI [15]	TGI [16]	TGI [17]	TGI [18]	TGI [19]
O/N=C(/C(Cl)=C(Cl)Cl)C(Cl)Cl	36.3 µM	77.9 µM	40 µM	30.3 µM	34 µM	38.6 µM	49 µM	30.7 µM	66.8 µM	49.4 µM	32 µM	34.7 µM	74.7 µM	73 µM	33.9 µM	30.2 µM			
O=c1[nH]c2cc([N+](=O)[O-])ccc2nc1/C(=N/Nc1ccccc1)C(O)c1ccco1 (centres undefined)	> 100 µM	> 100 µM		> 100 µM	> 100 µM		> 100 µM		> 100 µM		> 100 µM						> 100 µM		
O/N=C1\CC2(N3CCOCC3)CCC1(c1ccccc1)CC2	> 100 µM	> 100 µM		> 100 µM	> 100 µM	> 100 µM	> 100 µM	> 100 µM	> 100 µM	> 100 µM	> 100 µM	> 100 µM	> 100 µM	> 100 µM	> 100 µM	> 100 µM	> 100 µM	> 100 µM	> 100 µM
C=C(Cl)/C(=C\Cl)CCC(Cl)C(C)C (centres undefined)	> 100 µM	> 100 µM	> 100 µM	> 100 µM	> 100 µM	> 100 µM	> 100 µM	> 100 µM		> 100 µM	> 100 µM	> 100 µM	> 100 µM	> 100 µM	> 100 µM	> 100 µM	> 100 µM		> 100 µM
CC(C)(C)C1CCC2c3c([nH]c4ncccc34)C3C(=O)N(c4ccccc4)C(=O)C3C2C1 (centres undefined)	> 100 µM	> 100 µM		> 100 µM	> 100 µM	> 100 µM	> 100 µM	> 100 µM	> 100 µM	> 100 µM	> 100 µM	> 100 µM	> 100 µM			> 100 µM	> 100 µM		> 100 µM
O=C(Cc1nc2sc3c(c2c(=O)[nH]1)CCCC3)Nc1ccccc1	> 100 µM	> 100 µM		> 100 µM	> 100 µM	> 100 µM		> 100 µM	> 100 µM	> 100 µM	> 100 µM	> 100 µM	> 100 µM			> 100 µM	> 100 µM		> 100 µM
N#C/C(c1nc2ccccc2[nH]1)=c1\s/c(=C(/N)O)c(=N)n1-c1ccccc1	> 100 µM	> 100 µM		> 100 µM	> 100 µM	> 100 µM	> 100 µM	> 100 µM	> 100 µM	> 100 µM	> 100 µM	> 100 µM	> 100 µM			> 100 µM	> 100 µM		> 100 µM
O=C1c2c(ccc3c2CCC3)CC1Cc1ccc2c(c1)CCC2 (centres undefined)	> 100 µM	> 100 µM	49 µM	85.4 µM	99.1 µM	> 100 µM	> 100 µM	85.9 µM	> 100 µM	> 100 µM	> 100 µM	> 100 µM	> 100 µM	> 100 µM		> 100 µM	73.8 µM	27 µM	
CC(=O)OC1OC(c2ccoc2)C[C@@]12C1CCC3O[C@]3(C)[C@]1(C)[C@H](OC(C)=O)[C@H](OC(C)=O)[C@H]2C (some centres undefined)		> 37.5 µM	> 37.5 µM	> 37.5 µM	> 37.5 µM	> 37.5 µM	> 37.5 µM	> 37.5 µM	> 37.5 µM	> 37.5 µM	> 37.5 µM	> 37.5 µM	> 37.5 µM	> 37.5 µM	> 37.5 µM	> 37.5 µM	> 37.5 µM		> 37.5 µM
COc1ccc2c3c([nH]c(=O)c2c1C(=O)O)-c1ccccc1CC3	> 100 µM	> 100 µM		> 100 µM	> 100 µM	> 100 µM	> 100 µM	> 100 µM		> 100 µM	> 100 µM	> 100 µM	> 100 µM			> 100 µM	> 100 µM		> 100 µM
N#Cc1ccc(/C=C(/C(=O)c2ccccc2)c2ccccc2)cc1	41.1 µM	29.1 µM		26.9 µM	15.5 µM	48.4 µM	28.9 µM	35.2 µM	22.1 µM	35.4 µM	33.1 µM	57 µM	> 54.6 µM			32.7 µM	33.2 µM		39.7 µM
c1ccc2c(c1)nn1c3ccc4nonc4c3[n-][n+]21		> 100 µM	> 100 µM	> 100 µM	> 100 µM	> 100 µM	> 100 µM	> 100 µM	> 100 µM	> 100 µM	> 100 µM			> 100 µM	> 100 µM	> 100 µM	> 100 µM		> 100 µM
COCCOC(=O)NCn1cc(-c2ccccc2)nn1		> 100 µM	> 100 µM	> 100 µM	> 100 µM			> 100 µM	> 100 µM	> 100 µM	> 100 µM	> 100 µM		> 100 µM	> 100 µM	> 100 µM	> 100 µM		> 100 µM
O=C(O)Cc1ccc(Nc2nc3ccccc3nc2C(=O)O)cc1	> 100 µM	> 100 µM		> 100 µM	> 100 µM	> 100 µM	> 100 µM	> 100 µM	> 100 µM	> 100 µM	> 100 µM	> 100 µM	> 100 µM	> 100 µM	> 100 µM	> 100 µM	> 100 µM	> 100 µM	> 100 µM
Cc1ccc(/C=C/C(=N/NC(=O)N/N=C(/C=C/c2ccc(C)cc2)C(C)C)C(C)C)cc1	> 10 µM	> 10 µM	> 10 µM	2.88 µM	> 10 µM	> 10 µM	> 10 µM	> 10 µM	> 10 µM	> 10 µM	> 10 µM	> 10 µM		> 10 µM	> 10 µM		> 10 µM		> 10 µM
